Data taken from patent US8445405B2, “Synergistic herbicidal compositions containing aminopyralid, 2,4-dichlorophenoxyacetic acid and atrazine” (Dow AgroSciences, LLC., priority 2010, dated 2013).

Tests used:
[1] = tested on: bur-cucumber (Sicyos angulatus, SIYAN); experiment: Field trial, post-emergence weed control in corn (Jalisco, Mexico), visual rating; type: in vivo
Protocol: (§1) These trials were conducted under normal corn crop conditions. Trial sites were located in commercially grown corn in the Jalisco (Mexico) area. The corn crop was grown using normal cultural practices for fertilization, seeding, and maintenance to ensure good growth of the crop and the weeds. The trials were conducted using normal research methodology. Trial plots were between 6 to 7 meters (m) wide by 10 m long. All treatments were applied using a randomized complete block trial design with 3 or 4 replications per treatment. The trial sites had naturally occurring populations of weeds. The weed spectrum included, but was not limited to, redroot pigweed (Amaranthus retroflexus, AMARE), bur-cucumber (Sicyos angulatus, SIYAN). Treatments consisted of tank mixes of Tronador™ herbicide and atrazine applied in water. The application volumes were between 250 to 300 liters per hectare (L/ha). All applications were made using precision gas hand sprayers using a 3 m boom using flat fan 8002 nozzles to broadcast the treatments on the weeds.
(§2) The treated plots and control plots were rated blind at various intervals after application. Ratings were based on Percent (%) Visual weed control, where 0 corresponds to no injury and 100 corresponds to complete kill.
(§3) Colby's equation was used to determine the herbicidal effects expected from the mixtures (Colby, S. R. Weeds 1967, 15, 20-22. Calculation of the synergistic and antagonistic response of herbicide combinations).
(§4) The following equation was used to calculate the expected activity of mixtures containing two active ingredients, A and B: Expected=A+B−(A×B/100)
(§5) A=observed efficacy of active ingredient A at the same concentration as used in the mixture.
(§6) B=observed efficacy of active ingredient B at the same concentration as used in the mixture.

[2] = tested on: redroot pigweed (Amaranthus retroflexus, AMARE); experiment: as above; type: in vivo
Protocol: as §1, §2, §3, §4, §5, §6

[3] = 15 days after application, Atrazine 450 g ai/ha
[4] = 15 days after application, Atrazine 900 g ai/ha
[5] = 30 days after application, Atrazine 450 g ai/ha
[6] = 30 days after application, Atrazine 900 g ai/ha
[7] = 45 days after application, Atrazine 450 g ai/ha
[8] = 45 days after application, Atrazine 900 g ai/ha
[9] = 60 days after application, Atrazine 450 g ai/ha
[10] = 60 days after application, Atrazine 900 g ai/ha

CCNc1nc(Cl)nc(NC(C)C)n1 [Atrazine, 6-chloro-N-ethyl-N′-(1-methylethyl)-1,3,5-triazine-2,4-diamine]
SIYAN Obs - Percent control observed [1, 3]: 27.5%
SIYAN Obs - Percent control observed [1, 4]: 42.5%
SIYAN Obs - Percent control observed [1, 5]: 36.3%
SIYAN Obs - Percent control observed [1, 6]: 60%
SIYAN Obs - Percent control observed [1, 7]: 56.3%
SIYAN Obs - Percent control observed [1, 8]: 66.3%
SIYAN Obs - Percent control observed [1, 9]: 53.8%
SIYAN Obs - Percent control observed [1, 10]: 65%
AMARE Obs - Percent control observed [2, 3]: 35%
AMARE Obs - Percent control observed [2, 4]: 46.3%
AMARE Obs - Percent control observed [2, 5]: 77.5%
AMARE Obs - Percent control observed [2, 6]: 82.5%
AMARE Obs - Percent control observed [2, 7]: 91.3%
AMARE Obs - Percent control observed [2, 8]: 94.8%
AMARE Obs - Percent control observed [2, 9]: 91.3%
AMARE Obs - Percent control observed [2, 10]: 97%
